Patent US10889546B2, “Alkynyl pyridine prolyl hydroxylase inhibitor, and preparation method and medical use thereof” (Jiangsu Hengrui Medicine Co., Ltd., priority 2015, dated 2021)
Read-outs that look alike come from different tables or passages of the source.

What was measured:
Prolyl hydroxylase 2 = Prolyl hydroxylase 2 (Homo sapiens (Human), UniProt Q9GZT9); test: Prolyl hydroxylase 2 inhibition, fluorescence polarization method; assay type: biochemical
VEGF = VEGF expression at the cellular level (VEGF kit); assay type: cell-based; conditions: Hep3B human hepatoma cell, 24 h after administration
Procedure: (§1) The test of the activity of some compounds of the present invention on VEGF at the cellular level and EPO at the cellular level is shown as follows. The method is in accordance with Bioorganic & Medicinal Chemistry Letters 23 (2013) 5953-5957, and the test was carried out by using VEGF and EPO kit respectively 24 h after administration.
(§2) Hep3B Cell: Human Hepatoma Cell

EPO = EPO expression at the cellular level (EPO kit); assay type: cell-based; conditions: Hep3B human hepatoma cell, 24 h after administration
Procedure: as §1, §2

[1] = fluorescence polarization, read 1 h after adding the drugs, read-out: Prolyl hydroxylase 2 (IC50 nM)

Sequence of Prolyl hydroxylase 2 (Q9GZT9 whole entry): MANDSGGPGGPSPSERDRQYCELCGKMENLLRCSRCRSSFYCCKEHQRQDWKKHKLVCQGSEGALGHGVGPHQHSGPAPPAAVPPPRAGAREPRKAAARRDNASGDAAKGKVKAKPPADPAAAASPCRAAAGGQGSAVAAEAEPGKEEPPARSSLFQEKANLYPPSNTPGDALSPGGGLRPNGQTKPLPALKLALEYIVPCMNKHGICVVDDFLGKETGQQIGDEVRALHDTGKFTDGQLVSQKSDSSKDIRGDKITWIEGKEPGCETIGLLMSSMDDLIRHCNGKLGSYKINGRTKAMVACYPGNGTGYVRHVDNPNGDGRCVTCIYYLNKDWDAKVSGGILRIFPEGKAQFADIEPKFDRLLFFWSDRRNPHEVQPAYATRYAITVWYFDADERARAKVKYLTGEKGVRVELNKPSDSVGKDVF

SMILES	IC50 (Prolyl hydroxylase 2; [1])	Whether it can increase the expression of VEGF in cells (VEGF)	Whether it can increase the expression of EPO in cells (EPO)	IC50 (Prolyl hydroxylase 2; Table 2 comparison, same test method, same batch, read-out: Prolyl hydroxylase 2 (IC50 nM), example compounds of the present invention)
CC(C)(C)C#Cc1cnc(C(=O)NCC(=O)O)c(O)c1 [Example 3, 2-(3-Hydroxy-5-tert-butylethynyl)picolinamido acetic acid]	1220 ± 56 nM	Yes	Yes	
O=C(O)CNC(=O)c1ncc(C#CC2CC2)cc1O [Example 4, 2-(3-Hydroxy-5-cyclopropylethynyl)picolinamido acetic acid]	834.9 ± 3.2 nM	Yes	Yes	
O=C(O)CNC(=O)c1ncc(C#Cc2ccccc2)cc1O [Example 5, 2-(3-Hydroxy-5-phenylethynyl)picolinamido acetic acid]	820 ± 10.9 nM	Yes	Yes	
COC(=O)CNC(=O)c1ncc(C#Cc2ccccc2)cc1O [Example 6, Methyl 2-(3-hydroxy-5-phenylethynyl)picolinamido acetate]		Yes	Yes	
Cc1ccc(C#Cc2cc(O)c(C(=O)NCC(=O)O)nc2C)cc1 [Example 7, 2-(3-Hydroxy-5-p-methylphenylethynyl-6-methyl)picolinamido acetic acid]			Yes	
COc1ccc(C#Cc2cc(O)c(C(=O)NCC(=O)O)nc2Cl)cc1 [Example 8, 2-(3-Hydroxy-5-p-methoxyphenylethynyl-6-chloro)picolinamido acetic acid]		Yes	Yes	
CC(NC(=O)c1ncc(C#Cc2ccc(C3CC3)cc2)cc1O)C(=O)O (centres unmarked) [Example 9, 2-(3-Hydroxy-5-p-cyclopropylphenylethynylpyridine)carboxamido propionic acid]		Yes	Yes	
COc1ccc(C#Cc2cnc(C(=O)NCC(=O)O)c(O)c2)cc1 [Example 16, 2-(3-Hydroxy-5-p-methoxyphenylethynyl)picolinamido acetic acid]			Yes	
COc1cccc(C#Cc2cnc(C(=O)NCC(=O)O)c(O)c2)c1 [Example 17, 2-(3-Hydroxy-5-m-methoxyphenylethynyl)picolinamido acetic acid]		Yes	Yes	
O=C(O)CNC(=O)c1ncc(C#Cc2ccc(-c3ccccc3)cc2)cc1O [Example 18, 2-(3-Hydroxy-5-(biphenyl-4-ylethynyl))picolinamido acetic acid]	8130 ± 40.5 nM			
N#Cc1ccc(C#Cc2cnc(C(=O)NCC(=O)O)c(O)c2)cc1 [Example 19, 2-(3-Hydroxy-5-p-cyanophenylethynyl)picolinamido acetic acid]		Yes	Yes	
N#Cc1ccccc1C#Cc1cnc(C(=O)NCC(=O)O)c(O)c1 [Example 20, 2-(3-Hydroxy-5-o-cyanophenylethynyl)picolinamido acetic acid]		Yes	Yes	
CC(=O)Nc1ccc(C#Cc2cnc(C(=O)NCC(=O)O)c(O)c2)cc1 [Example 22, 2-(3-Hydroxy-5-p-acetamidophenylethynyl)picolinamido acetic acid]		Yes	Yes	
CN(C)C(=O)c1ccc(C#Cc2cnc(C(=O)NCC(N)=O)c(O)c2)cc1 [Example 23, 2-(3-Hydroxy-5-p-dimethylcarbamoylphenylethynyl)picolinamidoacetamide]		Yes	Yes	
CCCCC(=O)Nc1ccc(C#Cc2cnc(C(=O)NCC(=O)OCC3CC3)c(O)c2)cc1 [Example 24, Cyclopropylmethyl 2-(3-hydroxy-5-p-pentanaminophenylethynyl)picolinamidoacetate]			Yes	
CCCCNC(=O)c1ccc(C#Cc2cnc(C(=O)NCC(=O)OC(C)C)c(O)c2)cc1 [Example 25, Isopropyl 2-(3-hydroxy-5-p-butylcarbamoylphenylethynyl)picolinamidoacetate]		Yes		
NC(=O)CNC(=O)c1ncc(C#CCOc2ccc(Cl)cc2)cc1O [Example 28]		Yes	Yes	
CCc1ccc(OCC#Cc2cnc(C(=O)NCC(=O)OC)c(O)c2)cc1 [Example 29, Methyl 2-(3-hydroxy-5-(3-p-ethylphenoxypropyn-1-yl))picolinamido acetate]		Yes	Yes	

SMILES	IC50 (Prolyl hydroxylase 2; [1])	Whether it can increase the expression of VEGF in cells (VEGF)	Whether it can increase the expression of EPO in cells (EPO)	IC50 (Prolyl hydroxylase 2; Table 2 comparison, same test method, same batch, read-out: Prolyl hydroxylase 2 (IC50 nM), example compounds of the present invention)
CC(C)OC(=O)CNC(=O)c1ncc(C#CCOc2ccc(C#N)cc2)cc1O [Example 30, Isopropyl 2-(3-hydroxy-5-(3-p-cyanophenoxypropyn-1-yl))picolinamido acetate]		Yes	Yes	
O=C(O)CNC(=O)c1ncc(C#CCOc2ccccc2)cc1O [Example 33, 2-(3-Hydroxy-5-(3-phenoxypropyn-1-yl))picolinamido acetic acid]	169.5 ± 0.5 nM	Yes	Yes	169.5 ± 0.5 nM
Cc1ccccc1OCC#Cc1cnc(C(=O)NCC(=O)O)c(O)c1 [Example 35]	70.4 ± 0.6 nM	Yes	Yes	
CCc1ccc(OCC#Cc2cnc(C(=O)NCC(=O)O)c(O)c2)cc1 [Example 36]	378 ± 33.3 nM	Yes	Yes	
COc1ccc(OCC#Cc2cnc(C(=O)NCC(=O)O)c(O)c2)cc1 [Example 39, 2-(3-Hydroxy-5-(3-p-methoxyphenoxypropyn-1-yl))picolinamido acetic acid]		Yes	Yes	
CC(C)(C)Oc1cccc(OCC#Cc2cnc(C(=O)NCC(=O)O)c(O)c2)c1 [Example 40, 2-(3-Hydroxy-5-(3-m-tert-butoxyphenoxypropyn-1-yl))picolinamido acetic acid]		Yes	Yes	
O=C(O)CNC(=O)c1ncc(C#CCOc2cccc(OC3CC3)c2)cc1O [Example 41, 2-(3-Hydroxy-5-(3-m-cyclopropoxyphenoxypropyn-1-yl))picolinamido acetic acid]		Yes	Yes	
O=C(O)CNC(=O)c1ncc(C#CCOc2ccc(C(F)(F)F)cc2)cc1O [Example 42, 2-(3-Hydroxy-5-(3-p-trifluoromethylphenoxypropyn-1-yl))picolinamido acetic acid]	515 ± 6.1 nM			
O=C(O)CNC(=O)c1ncc(C#CCOc2cccc(Br)c2)cc1O [Example 48, 2-(3-Hydroxy-5-(3-m-bromophenoxypropyn-1-yl))picolinamido acetic acid]		Yes	Yes	
N#Cc1cccc(OCC#Cc2cnc(C(=O)NCC(=O)O)c(O)c2)c1 [Example 49, 2-(3-Hydroxy-5-(3-m-cyanophenoxypropyn-1-yl))picolinamido acetic acid]		Yes	Yes	
NC(=O)c1ccc(OCC#Cc2cnc(C(=O)NCC(=O)O)c(O)c2)cc1 [Example 52, 2-(3-Hydroxy-5-(3-p-carbamoylphenoxypropyn-1-yl))picolinamido acetic acid]			Yes	
O=C(O)CNC(=O)c1ncc(C#CCOc2ccc(C(=O)N3CCCC3)cc2)cc1O [Example 54, 2-(3-Hydroxy-5-(3-(4-(pyrrolidin-1-carbonyl)phenoxy)propyn-1-yl))picolinamido acetic acid]		Yes	Yes	
O=C(O)CNC(=O)c1nc(Cl)c(C#CCOc2ccc(C(=O)N3CC3)cc2)cc1O [Example 55]		Yes	Yes	
O=C(O)CNC(=O)c1ncc(C#CCOc2ccc3ccccc3c2)cc1O [Example 58, 2-(3-Hydroxy-5-(3-(naphthalen-2-oxy)propyn-1-yl))picolinamido acetic acid]		Yes	Yes	
O=C(O)CNC(=O)c1ncc(C#CCOc2cccc(Cl)c2Cl)cc1O [Example 61, 2-(3-Hydroxy-5-(3-(2,3-dichlorophenyl)oxypropyn-1-yl))picolinamido acetic acid]		Yes	Yes	
O=C(O)CNC(=O)c1ncc(C#CCOc2cc(Cl)cc(Cl)c2)cc1O [Example 62, 2-(3-Hydroxy-5-(3-(3,5-dichlorophenyl)oxypropyn-1-yl))picolinamido acetic acid]		Yes	Yes	
Cc1nc(C(=O)NCC(=O)O)c(O)cc1C#CCOc1ccc(C2CC2)cc1 [Example 63, 2-(3-Hydroxy-5-(3-p-cyclopropylphenoxypropyn-1-yl)-6-methyl)picolinamido acetic acid]			Yes	
CCc1ccc(NCC#Cc2cnc(C(=O)NCC(=O)O)c(O)c2)cc1 [Example 66, 2-(3-Hydroxy-5-(3-p-ethylanilinopropyn-1-yl))picolinamido acetic acid]		Yes	Yes	
